Laboratory results published in patent publication US7560552B2, “Thiopyrimidine and isothiazolopyrimidine kinase inhibitors” (Abbott Laboratories, priority 2002, dated 2009).

| SMILES | melting point [°C] |
| --- | --- |
| CC(C)c1sc2ncnc(N)c2c1-c1ccc(NC(=O)c2ccccc2)cc1 [Example 8, N-[4-(4-amino-6-isopropylthieno[2,3-d]pyrimidin-5-yl)phenyl]benzamide] | > 250 |
| Cc1ccc(NC(=O)Nc2ccc(-c3c(Cc4ccccc4)sc4ncnc(N)c34)cc2)cc1 [Example 9, N-[4-(4-amino-6-benzylthieno[2,3-d]pyrimidin-5-yl)phenyl]-N′-(4-methylphenyl)urea] | 169 to 173 |
| Cc1ccccc1NC(=O)Nc1ccc(-c2c(Cc3ccccc3)sc3ncnc(N)c23)cc1 [Example 11, N-[4-(4-amino-6-benzylthieno[2,3-d]pyrimidin-5-yl)phenyl]-N′-(2-methylphenyl)urea] | 245 to 248 |
| Cc1ccccc1NC(=O)Nc1ccc(-c2c(C(C)C)sc3ncnc(N)c23)cc1 [Example 12, N-[4-(4-amino-6-isopropylthieno[2,3-d]pyrimidin-5-yl)phenyl]-N′-(2-methylphenyl)urea] | 233 to 234 |
| Nc1ncnc2sc(Cc3ccccc3)c(-c3ccc(NS(=O)(=O)c4ccccc4)cc3)c12 [Example 13, N-[4-(4-amino-6-benzylthieno[2,3-d]pyrimidin-5-yl)phenyl]benzenesulfonamide] | 100 to 105 |
| Cc1ccccc1NC(=O)Nc1ccc(-c2c(CCO)sc3ncnc(N)c23)cc1 [Example 107, N-{4-[4-amino-6-(2-hydroxyethyl)thieno[2,3-d]pyrimidin-5-yl]phenyl}-N′-(2-methylphenyl)urea] | 159 to 162 |
| COCCc1sc2ncnc(N)c2c1-c1ccc(NC(=O)Nc2ccc(C)cc2)cc1 [Example 110, N-{4-[4-amino-6-(2-methoxyethyl)thieno[2,3-d]pyrimidin-5-yl]phenyl}-N′-(4-methylphenyl)urea] | 128 to 132 |
| COCCc1sc2ncnc(N)c2c1-c1ccc(NS(=O)(=O)c2ccccc2)cc1 [Example 111, N-{4-[4-amino-6-(2-methoxyethyl)thieno[2,3-d]pyrimidin-5-yl]phenyl}benzenesulfonamide] | 206 to 208 |
| COCCc1sc2ncnc(N)c2c1-c1ccc(NC(=O)Cc2cccc(C)c2)cc1 [Example 112, N-{4-[4-amino-6-(2-methoxyethyl)thieno[2,3-d]pyrimidin-5-yl]phenyl}-2-(3-methylphenyl)acetamide] | 200 to 202 |
| COCCc1sc2ncnc(N)c2c1-c1ccc(NC(=O)c2ccccc2)cc1 [Example 113, N-{4-[4-amino-6-(2-methoxyethyl)thieno[2,3-d]pyrimidin-5-yl]phenyl}benzamide] | 200 to 202 |
| Nc1ncnc2sc(Cc3cccnc3)c(-c3ccc(NC(=O)Nc4cccc(Cl)c4)cc3)c12 [Example 117, N-{4-[4-amino-6-(pyridin-3-ylmethyl)thieno[2,3-d]pyrimidin-5-yl]phenyl}-N′-(3-chlorophenyl)urea] | 169 to 172 |
| COCCc1sc2ncnc(N)c2c1-c1ccc(NC(=O)Nc2ccccc2C)cc1 [Example 137, N-{4-[4-amino-6-(2-methoxyethyl)thieno[2,3-d]pyrimidin-5-yl]phenyl}-N′-(2-methylphenyl)urea] | 217 to 219 |
| Nc1ncnc2sc(CCO)c(-c3ccc(NC(=O)Nc4cccc(C(F)(F)F)c4)cc3)c12 [Example 139, N-{4-[4-amino-6-(2-hydroxyethyl)thieno[2,3-d]pyrimidin-5-yl]phenyl}-N′-[3-(trifluoromethyl)phenyl]urea] | 155 to 158 |
| COCCc1sc2ncnc(N)c2c1-c1ccc(NC(=O)Nc2cc(C(F)(F)F)ccc2F)cc1 [Example 140, N-{4-[4-amino-6-(2-methoxyethyl)thieno[2,3-d]pyrimidin-5-yl]phenyl}-N′-[2-fluoro-5-(trifluoromethyl)phenyl]urea] | 209 to 211 |
| Nc1ncnc2sc(Cc3ccncc3)c(-c3ccc(NC(=O)Nc4cccc(C(F)(F)F)c4)cc3)c12 [Example 142, N-{4-[4-amino-6-(pyridin-4-ylmethyl)thieno[2,3-d]pyrimidin-5-yl]phenyl}-N′-[3-(trifluoromethyl)phenyl]urea] | 162 to 166 |
| Cc1cccc(CC(=O)Nc2ccc(-c3c(CCO)sc4ncnc(N)c34)cc2)c1 [Example 350, N-{4-[4-amino-6-(2-hydroxyethyl)thieno[2,3-d]pyrimidin-5-yl]phenyl}-2-(3-methylphenyl)acetamide] | 142 to 144 |
